Data: patent US20060069132A1, “Azolecarboxamide herbicides” (priority 2004, published 2006)

Key:
[1] = tested on: pigweed; experiment: Test C pre-/postemergence herbicide test; type: in vivo, Amaranthus retroflexus; conditions: for Pigweed plant response rating: 500 g ai/ha
Procedure, shortened: (§1)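 Preemergence: seeds planted and treated with compound in non-phytotoxic solvent with surfactant; postemergence: plants at 2 to 18 cm (1- to 4-leaf stage) sprayed likewise. Kept in greenhouse 12 to 14 days, then visually rated against controls, 0 (no effect) to 100 (complete control).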

[2] = tested on: goosegrass; experiment: Test C pre-/postemergence herbicide test; type: in vivo, Eleusine indica; conditions: for Goosegrass plant response rating: 500 g ai/ha
Procedure, shortened: as §1

[3] = tested on: rice; experiment: Test C flooded paddy test; type: in vivo, Oryza sativa; conditions: for Plant response rating, Rice: visual rating after 12 to 14 days
Procedure, shortened: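 Plants were grown to the 1- to 4-leaf stage (2–18 cm) and then treated postemergence, or grown to the 2-leaf stage for the flooded paddy test. They were held in a greenhouse for 12 to 14 days and then scored by eye against controls, where 0 is no effect and 100 is complete control.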

[4] = tested on: giant foxtail; experiment: Test C pre-/postemergence herbicide test; type: in vivo, Setaria faberi; conditions: for Foxtail, Giant plant response rating: 500 g ai/ha
Procedure, shortened: as §1

[5] = tested on: barnyardgrass; experiment: Test C flooded paddy test; type: in vivo, Echinochloa crus-galli; conditions: for Plant response rating, Barnyardgrass: visual rating after 12 to 14 days
Procedure, shortened: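 Ratings (0 = no effect, 100 = complete control) come from visual comparison with untreated plants after 12 to 14 days in the greenhouse. Treatment was postemergence at the 1- to 4-leaf stage (2–18 cm), or at the 2-leaf stage for the flooded paddy barnyardgrass.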

[6] = tested on: large crabgrass; experiment: Test A pre-/postemergence herbicide test; type: in vivo, Digitaria sanguinalis; conditions: for Plant response rating, Crabgrass, Large: Postemergence; for Crabgrass, Large plant response rating: Preemergence
Procedure, shortened: (§2)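 Sandy loam soil given preemergence directed spray; plants at 2 to 10 cm, one- to two-leaf stage, sprayed to runoff postemergence, compounds in non-phytotoxic solvent with surfactant. Injury rated visually versus untreated controls after about ten greenhouse days, 0 (no effect) to 100 (complete control); dash means not tested.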

[7] = tested on: lambsquarters; experiment: Test C pre-/postemergence herbicide test; type: in vivo, Chenopodium album; conditions: for Lambsquarters plant response rating: 500 g ai/ha
Procedure, shortened: as §1

[8] = tested on: redroot pigweed; experiment: Test A pre-/postemergence herbicide test; type: in vivo, Amaranthus retroflexus; conditions: for Plant response rating, Pigweed: Postemergence; for Pigweed plant response rating: Preemergence
Procedure, shortened: as §2

[9] = tested on: rice; experiment: Test B pre-/postemergence herbicide test; type: in vivo, Oryza sativa
Procedure, shortened: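 Test chemicals in a non-phytotoxic solvent mixture with surfactant were applied preemergence to seeded species and postemergence to plants 2-18 cm tall (1- to 4-leaf stage); rice and barnyardgrass were also tested in a flooded paddy at the 2-leaf stage. Visual rating versus controls after 13-15 days in greenhouse, scale 0 (no effect) to 100 (complete control).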

[10] = 125 g ai/ha, scale 0 (no effect) to 100 (complete control), visual, 12 to 14 days, preemergence
[11] = 250 g ai/ha, scale 0 to 100 (0 no effect, 100 complete control), visual, 12 to 14 days, preemergence
[12] = Postemergence, 250 g ai/ha, scale 0 to 100, 0 no effect, 100 complete control
[13] = Preemergence, scale 0 to 100, 0 no effect, 100 complete control
[14] = postemergence, 62 g ai/ha, scale 0 to 100
[15] = Postemergence, 125 g ai/ha, scale 0 to 100, 0 no effect, 100 complete control
[16] = 62 g ai/ha, scale 0 to 100 (0 no effect, 100 complete control)
[17] = 125 g ai/ha, scale of 0 to 100, 0 is no effect, 100 is complete control
[18] = 250 g ai/ha, scale 0 to 100 (0 no effect, 100 complete control)
[19] = 500 g ai/ha, scale 0 to 100 (0 no effect, 100 complete control)
[20] = 500 g ai/ha, 0 to 100 scale, 0 no effect, 100 complete control
[21] = 2000 g ai/ha, 0 to 100 scale, 0 no effect, 100 complete control
[22] = 500 g ai/ha, visual rating, 0 to 100 scale (0 no effect, 100 complete control)

C#CCNC(=O)c1cccc(NC(=O)c2cc(C(C)(C)C)nn2CC)c1 [Compound 47]
60: Plant response rating, Goosegrass [2, 15] | Plant response rating, Goosegrass [2, 12] | Plant response rating, Foxtail, Giant [4, 15] | Plant response rating, Foxtail, Giant [4, 12] | Plant response rating, Foxtail, Giant [4, 14]
80: Plant response rating (0 = no effect, 100 = complete control), Goosegrass ([2]; 62 g ai/ha, preemergence) | Goosegrass plant response rating ([2]; Postemergence, scale 0 to 100) | Plant response rating, Foxtail, Giant [4, 11]
50: Plant response rating, Goosegrass [2, 14] | Plant response rating, Rice [3, 19]
0: Rice plant response rating [3, 16] | Barnyardgrass plant response rating [5, 16] | Barnyardgrass plant response rating [5, 17]
90: Foxtail, Giant plant response rating [4, 13] | Crabgrass, Large plant response rating [6, 21] | Plant response rating, Lambsquarters [7, 14]
20: Rice plant response rating [3, 17] | Plant response rating, Rice [3, 18]
40: Plant response rating (0 = no effect, 100 = complete control), Foxtail, Giant ([4]; 62 g ai/ha, preemergence) | Plant response rating, Barnyardgrass [5, 18] | Plant response rating, Barnyardgrass [5, 19]
85: Plant response rating, Crabgrass, Large [6, 20]
70: Plant response rating, Foxtail, Giant [4, 10] | Foxtail, Giant plant response rating ([4]; Postemergence, scale 0 to 100)
100: Plant response rating (0 = no effect, 100 = complete control), Pigweed ([1]; 62 g ai/ha, preemergence) | Plant response rating, Pigweed [1, 10] | Plant response rating, Pigweed [1, 11] | Pigweed plant response rating ([1]; Postemergence, scale 0 to 100) | Plant response rating, Pigweed [1, 12] | Pigweed plant response rating [1, 13] | Plant response rating, Pigweed [1, 14] | Plant response rating, Goosegrass [2, 10] | Plant response rating, Goosegrass [2, 11] | Goosegrass plant response rating [2, 13] | Plant response rating, Crabgrass, Large [6, 21] | Plant response rating (0 = no effect, 100 = complete control), Lambsquarters ([7]; 62 g ai/ha, preemergence) | Plant response rating, Lambsquarters [7, 10] | Plant response rating, Lambsquarters [7, 11] | Lambsquarters plant response rating ([7]; Postemergence, scale 0 to 100) | Plant response rating, Lambsquarters [7, 12] | Lambsquarters plant response rating [7, 13] | Plant response rating, Pigweed [8, 20] | Plant response rating, Pigweed [8, 21] | Pigweed plant response rating [8, 22] | Pigweed plant response rating [8, 21]
55: Crabgrass, Large plant response rating [6, 22]

C#CCn1nc(C(C)(C)C)cc1C(=O)Nc1cccc(C(=O)NCC)c1 [Compound 50]
10: Plant response rating, Rice ([9]; preemergence, 125 g ai/ha, 0 to 100 scale, 0 is no effect, 100 is complete control) | Foxtail, Giant plant response rating [4, 13]
40: Plant response rating (0 = no effect, 100 = complete control), Goosegrass ([2]; 62 g ai/ha, preemergence)
90: Plant response rating (0 = no effect, 100 = complete control), Pigweed ([1]; 62 g ai/ha, preemergence) | Plant response rating, Pigweed [1, 10] | Plant response rating, Goosegrass [2, 12]
100: Pigweed plant response rating ([1]; Postemergence, scale 0 to 100) | Plant response rating, Pigweed [1, 12] | Plant response rating, Goosegrass [2, 11] | Goosegrass plant response rating [2, 13] | Plant response rating, Lambsquarters [7, 11] | Lambsquarters plant response rating [7, 13]
30: Plant response rating, Goosegrass [2, 15] | Plant response rating, Goosegrass [2, 14]
95: Plant response rating, Pigweed [1, 11] | Pigweed plant response rating [1, 13]
50: Plant response rating, Pigweed [1, 14] | Rice plant response rating ([9]; Preemergence, 500 g ai/ha, scale 0 to 100)
80: Plant response rating, Goosegrass [2, 10]
0: Plant response rating (0 = no effect, 100 = complete control), Foxtail, Giant ([4]; 62 g ai/ha, preemergence) | Plant response rating, Foxtail, Giant [4, 10] | Plant response rating, Foxtail, Giant [4, 11] | Foxtail, Giant plant response rating ([4]; Postemergence, scale 0 to 100) | Plant response rating, Foxtail, Giant [4, 15] | Plant response rating, Foxtail, Giant [4, 12] | Plant response rating, Foxtail, Giant [4, 14] | Lambsquarters plant response rating ([7]; Postemergence, scale 0 to 100) | Plant response rating, Lambsquarters [7, 12] | Plant response rating, Lambsquarters [7, 14]
85: Plant response rating (0 = no effect, 100 = complete control), Lambsquarters ([7]; 62 g ai/ha, preemergence) | Plant response rating, Lambsquarters [7, 10]

CCc1cn(C(C)(C)C)nc1C(=O)Nc1cccc(C(=O)N(CC)CC)c1 [Compound 168, N-[3-[(diethylamino)carbonyl]phenyl]-1-(1,1-dimethylethyl)-4-ethyl-1H-pyrazole-3-carboxamide]
0%: plant injury at 125 g/ha ([9]; Oryza sativa, pre-emergence, 336 h, 125 g ai/ha, 0 = no effect, 100 = complete control, read-out: Rice plant response rating (0 to 100 scale))
